Data as given in patent US9556183B2, “Substituted pyrazolylpyrazole derivative and use of same as herbicide” (KYOYU AGRI CO., LTD., priority 2013, dated 2017).

Tests used:
Rice plants = experiment: Paddy herbicidal activity test, phytotoxicity to transplanted rice; assay type: in vivo; conditions: rice transplanted at 2.0 leaf stage, 30 days
How it was run: (§1)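 Flooded paddy-soil pots (3 cm water) sown with weeds; rice at 2.0 leaf stage transplanted when Echinochloa reached 3.5 leaf stage, then diluted wettable powder dropped into water at prescribed rate per are. After 30 days in greenhouse (mean 30° C), growth inhibition vs untreated (efficacy) or vs complete kill (phytotoxicity) scored on 11 levels.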

Chenopodium album [1] = experiment: Weed foliar treatment test; assay type: in vivo; conditions: foliar spray, 3 weeks
Procedure: (§2) Evaluation of herbicidal efficacy was carried out by comparing growth inhibition rate (%) with an untreated group, while evaluation of phytotoxicity was carried out by comparing growth inhibition rate (%) with the state of a complete eradication group, and were evaluated at 11 levels indicated below. [table] Soil was filled into a 1/6000 are pot followed by seeding with Digitaria ciliaris, Chenopodium album and Amaranthus retroflexus, covering with soil, and cultivating in a glass greenhouse at an average atmospheric temperature of 25° C. Wettable powder of Target Compound (I) shown in Table 1 prepared in compliance with the preparation examples were diluted with water to the prescribed amount of chemical and uniformly sprayed onto the weeds using 15 liters of sprayed water per are when Digitaria ciliaris had grown to the 1.0 to 2.0 leaf stage. After treating for 3 weeks in a glass greenhouse at an average atmospheric temperature of 25° C., the herbicidal efficacy thereof was investigated, Evaluation of herbicidal efficacy was carried out in the same manner as the above-mentioned Test Example 1.

Amaranthus retroflexus [2] = experiment: Weed foliar treatment test; assay type: in vivo; conditions: foliar spray, 3 weeks
Procedure: as §2

Digitaria ciliaris [3] = experiment: Weed foliar treatment test; assay type: in vivo; conditions: foliar spray at 1.0 to 2.0 leaf stage of Digitaria ciliaris, 3 weeks
Procedure: as §2

Monochoria vaginalis = experiment: Paddy herbicidal activity test; assay type: in vivo; conditions: irrigated paddy pot, 30 days
How it was run: as §1

Echinochloa crus-galli = experiment: Paddy herbicidal activity test; assay type: in vivo; conditions: irrigated paddy pot, treated at 3.5 leaf stage of Echinochloa crus-galli, 30 days
How it was run: as §1

Scirpus juncoides = experiment: Paddy herbicidal activity test; assay type: in vivo; conditions: irrigated paddy pot, 30 days
How it was run: as §1

Chenopodium album [4] = experiment: Farming soil treatment test; assay type: in vivo; conditions: soil surface spray prior to weed growth, 30 days
Procedure: (§3) Evaluation of herbicidal efficacy was carried out by comparing growth inhibition rate (%) with an untreated group, while evaluation of phytotoxicity was carried out by comparing growth inhibition rate (%) with the state of a complete eradication group, and were evaluated at 11 levels indicated below. [table] Field soil was filled into a 1/6000 are pot followed by seeding with Digitaria ciliaris, Chenopodium album and Amaranthus retroflexus and covering with soil. Wettable powder of compounds of formula (I) shown in Table 1 prepared in compliance with the preparation examples were diluted with water to the prescribed amount of chemical and uniformly sprayed onto each soil surface layer using 10 liters of sprayed water per are prior to weed growth following seeding. After treating for 30 days in a glass greenhouse at an average atmospheric temperature of 30° C., the herbicidal efficacy thereof was investigated. Evaluation of herbicidal efficacy was carried out in the same manner as the above-mentioned Test Example 1.

Amaranthus retroflexus [5] = experiment: Farming soil treatment test; assay type: in vivo; conditions: soil surface spray prior to weed growth, 30 days
Procedure: as §3

Digitaria ciliaris [6] = experiment: Farming soil treatment test; assay type: in vivo; conditions: soil surface spray prior to weed growth, 30 days
Procedure: as §3

| Compound | phytotoxicity (growth inhibition rate level) Rice plants (Rice plants; 1g a.i./10a) | phytotoxicity (growth inhibition rate level) Rice plants (Rice plants; 5g a.i./10a) | herbicidal efficacy (growth inhibition rate level) Chenopodium album (Chenopodium album [1]; 5g a.i./10a) | herbicidal efficacy (growth inhibition rate level) Chenopodium album (Chenopodium album [1]; 10g a.i./10a) | herbicidal efficacy (growth inhibition rate level) Amaranthus retroflexus (Amaranthus retroflexus [2]; 5g a.i./10a) | herbicidal efficacy (growth inhibition rate level) Amaranthus retroflexus (Amaranthus retroflexus [2]; 10g a.i./10a) | herbicidal efficacy (growth inhibition rate level) Digitaria ciliaris (Digitaria ciliaris [3]; 5g a.i./10a) | herbicidal efficacy (growth inhibition rate level) Digitaria ciliaris (Digitaria ciliaris [3]; 10g a.i./10a) | melting point [°C] | herbicidal efficacy (growth inhibition rate level) Monochoria vaginalis (Monochoria vaginalis; 1g a.i./10a) | herbicidal efficacy (growth inhibition rate level) Monochoria vaginalis (Monochoria vaginalis; 5g a.i./10a) | herbicidal efficacy (growth inhibition rate level) Echinochloa crus-galli (Echinochloa crus-galli; 1g a.i./10a) | herbicidal efficacy (growth inhibition rate level) Echinochloa crus-galli (Echinochloa crus-galli; 5g a.i./10a) | herbicidal efficacy (growth inhibition rate level) Scirpus juncoides (Scirpus juncoides; 1g a.i./10a) | herbicidal efficacy (growth inhibition rate level) Scirpus juncoides (Scirpus juncoides; 5g a.i./10a) | herbicidal efficacy (growth inhibition rate level) Chenopodium album (Chenopodium album [4]; 5g a.i./10a) | herbicidal efficacy (growth inhibition rate level) Chenopodium album (Chenopodium album [4]; 10g a.i./10a) | herbicidal efficacy (growth inhibition rate level) Amaranthus retroflexus (Amaranthus retroflexus [5]; 5g a.i./10a) | herbicidal efficacy (growth inhibition rate level) Amaranthus retroflexus (Amaranthus retroflexus [5]; 10g a.i./10a) | herbicidal efficacy (growth inhibition rate level) Digitaria ciliaris (Digitaria ciliaris [6]; 5g a.i./10a) | other results |
| --- | --- | --- | --- | --- | --- | --- | --- | --- | --- | --- | --- | --- | --- | --- | --- | --- | --- | --- | --- | --- | --- |
| CC(Nc1c(C#N)cnn1-c1nn2c(c1Cl)CCCC2)C1CC1 (stereo not drawn) [Compound 9, 1-(3-chloro-4,5,6,7-tetrahydropyrazolo[1,5-a]pyridin-2-yl)-5-(1-cyclopropylethylamino)pyrazole-4-carbonitrile] | 0 (0 (exponent): 0% to less than 10% (growth inhibition rate)) | 1 (1: 10% to less than 20%) | 10 (10: 100%) | 10 (10: 100%) | 10 (10: 100%) | 10 (10: 100%) | 10 (10: 100%) | 10 (10: 100%) | 104 to 108 | 8 (8: 80% to less than 90%) | 9 (9: 90% to less than 100%) | 9 (9: 90% to less than 100%) | 9 (9: 90% to less than 100%) | 8 (8: 80% to less than 90%) | 8 (8: 80% to less than 90%) | 10 (10: 100%) | 10 (10: 100%) | 10 (10: 100%) | 10 (10: 100%) | 10 (10: 100%) | herbicidal efficacy (growth inhibition rate level) Digitaria ciliaris (Digitaria ciliaris [6]; 10g a.i./10a): 10 (10: 100%) |
| N#Cc1cnn(-c2nn3c(c2Cl)CCCC3)c1NC(C1CC1)C1CC1 [Compound 10, 1-(3-chloro-4,5,6,7-tetrahydropyrazolo[1,5-a]pyridin-2-yl)-5-(dicyclopropylmethylamino)pyrazole-4-carbonitrile] | 0 (0 (exponent): 0% to less than 10% (growth inhibition rate)) | 1 (1: 10% to less than 20%) | 10 (10: 100%) | 10 (10: 100%) | 10 (10: 100%) | 10 (10: 100%) | 10 (10: 100%) | 10 (10: 100%) | 132 to 133 | 8 (8: 80% to less than 90%) | 9 (9: 90% to less than 100%) | 9 (9: 90% to less than 100%) | 9 (9: 90% to less than 100%) | 8 (8: 80% to less than 90%) | 9 (9: 90% to less than 100%) | 10 (10: 100%) | 10 (10: 100%) | 10 (10: 100%) | 10 (10: 100%) | 10 (10: 100%) | herbicidal efficacy (growth inhibition rate level) Digitaria ciliaris (Digitaria ciliaris [6]; 10g a.i./10a): 10 (10: 100%) |
